#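 How tested: cells in 96-well plates exposed to compound for 48 hours at five concentrations. GI50 = concentration required for 50% inhibition of growth. TGI: total growth inhibition.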
# Legend:
# Assay in all cases: growth of human tumour cells (NCI), 48 h
# TK-10 renal = test system: TK-10 renal
# CCRF-CEM leukemia = test system: CCRF-CEM leukemia
# K-562 leukemia = test system: K-562 leukemia
# SK-MEL-5 melanoma = test system: SK-MEL-5 melanoma
# OVCAR-3 ovarian = test system: OVCAR-3 ovarian
# A498 renal = test system: A498 renal
# DMS 273 small cell lung = test system: DMS 273 small cell lung
# MDA-MB-435 = test system: MDA-MB-435
# SR leukemia = test system: SR leukemia
# LXFL 529 NSCLC = test system: LXFL 529 NSCLC
SMILES,GI50 (TK-10 renal) [µM],TGI (TK-10 renal) [µM],GI50 (CCRF-CEM leukemia) [µM],TGI (CCRF-CEM leukemia) [µM],GI50 (K-562 leukemia) [µM],TGI (K-562 leukemia) [µM],GI50 (SK-MEL-5 melanoma) [µM],TGI (SK-MEL-5 melanoma) [µM],GI50 (OVCAR-3 ovarian) [µM],TGI (OVCAR-3 ovarian) [µM],GI50 (A498 renal) [µM],TGI (A498 renal) [µM],GI50 (DMS 273 small cell lung) [µM],TGI (DMS 273 small cell lung) [µM],TGI (MDA-MB-435) [µM],GI50 (MDA-MB-435) [µM],GI50 (SR leukemia) [µM],TGI (SR leukemia) [µM],TGI (LXFL 529 NSCLC) [µM]
CC(C)CCCC(C)[C@H]1CCC2C3CC=C4C[C@@H](OC(=O)CC(CC(=O)[O-])C(=O)[O-])CC[C@]4(C)C3CC[C@@]21C.N.N.[Pt+4] (some centres undefined),> 100,> 100,> 100,> 100,> 100,> 100,> 100,> 100,> 100,> 100,> 100,> 100,> 100,> 100,,,,,
COc1ccccc1C(=O)Nc1ccc(Cl)c(C(=O)OC(C)C)c1,,> 100,,> 92.7,,> 100,,> 54.8,,> 65.4,,> 90.4,,> 100,> 100,,,,
COc1ccc2cn3c4ccc(O)cc4[nH]c(=O)c3c2c1,2.19,8.08,0.0845,12.2,0.0516,4.48,0.0257,3.45,0.0474,7.08,0.404,17,,,0.0692,0.0248,0.0556,3.87,
O=C(Oc1c(Cl)c(Cl)c(Cl)c(Cl)c1Cl)C1CCCN1C(=O)OCc1ccccc1 (centres undefined),3.13,8.85,3.01,14.3,3.43,19.3,2.26,5.74,3.27,9.84,1.99,5.81,,,16.6,4.11,3.82,15.7,
CCN(CC)CCC(CNc1c(C)cnc2cc(Cl)ccc12)c1ccc(Cl)c(Cl)c1 (centres undefined),5.03,17.1,2.81,9.31,1.2,3.51,1.82,3.26,6.81,21.1,9.4,24.8,,,3.4,1.77,1.93,5.44,
COc1ccc(C#CC2=C(Br)C(=O)OC2)cc1,1.94,16.2,3.98,> 50,4.77,> 50,7.58,14.3,1.61,7,0.873,12,,,27.3,9.94,2.63,> 50,
CC(C)(C)CC(C)(C)c1cc2c(O)c(c1)Cc1cc(C(C)(C)CC(C)(C)C)cc(c1O)Cc1cc(C(C)(C)CC(C)(C)C)cc(c1O)Cc1cc(C(C)(C)CC(C)(C)C)cc(c1O)Cc1cc(C(C)(C)CC(C)(C)C)cc(c1O)Cc1cc(C(C)(C)CC(C)(C)C)cc(c1O)Cc1cc(C(C)(C)CC(C)(C)C)cc(c1O)Cc1cc(C(C)(C)CC(C)(C)C)cc(c1O)C2,,> 100,,> 100,,> 100,,> 100,,> 100,,,,> 100,,,,,> 100
CC(=O)OCCC/C(=C/c1cc2ccccc2c2ccccc12)[N+](=O)[O-],1.69,3.14,2.52,> 25.3,1.7,6.87,1.61,2.96,0.814,2.13,1.38,2.72,,,3.16,1.46,0.495,4.58,
COC(=O)[C@]12CC[C@@H](C)[C@H](C)[C@@H]1C1=CC[C@@H]3[C@@]4(C)C(C=O)=C[C@@](C)(COC(=O)c5ccco5)C4=CC[C@@]3(C)[C@]1(C)CC2,2.42,12.5,2.87,8.73,3.7,17.3,0.189,1.17,2.17,4.76,2.81,16.9,,,2.96,0.0663,2.12,6.66,
COc1ccc(-n2nc(C(=O)NCC(=O)Nc3nc4cc(OC)ccc4s3)c3ccccc3c2=O)cc1,0.389,1.52,> 100,> 100,> 37.7,> 100,1.55,> 42.7,0.85,,1.37,10.3,,,14.3,0.641,> 20.5,> 100,
COc1cc(-c2cn(-c3ccc(F)cc3)c(=O)[nH]2)cc(OC)c1OC,> 100,> 100,> 100,> 100,> 100,> 100,> 100,> 100,> 100,> 100,> 100,> 100,,,> 100,> 100,> 100,> 100,
COC(=O)C(Br)(C(=O)OC)C(Br)C(Br)C(Br)c1ccccc1 (centres undefined),2.35,6.19,2,7.21,2.95,9.93,2.71,7.27,1.72,3.11,15.5,29.4,,,7.36,2.48,2.8,9.71,
CCCCc1n(Cc2ccc3ccccc3n2)cc[n+]1Cc1ccc2ccccc2c1,1.49,3.69,1.04,4.61,0.359,2.36,0.559,1.33,0.541,2.03,1.18,4.45,,,1.9,0.661,0.456,1.95,
CCN1C(=O)N[C@H]2[C@@H]3NC(=O)c4ccc(Cl)n4[C@@H]3C[C@]21O,1.66,12.5,0.224,1.25,0.363,5.09,0.228,0.711,0.542,10.3,1.82,6.16,,,11.1,1.05,0.257,0.983,
CCC1C[N+]2=C(c3cc(OC)c(OC)cc3CC2)c2c1cc1n2CCc2cc(OC)c(OC)cc2-1 (centres undefined),6.84,21.1,3.68,42.4,1.95,20.8,1.26,2.61,1,10.8,7.36,33,,,6.09,1.62,3.1,> 100,
C=CCC(O)c1cc(OC)ccc1OC (centres undefined),,> 100,,> 100,,> 100,,> 100,,> 100,,,,> 100,,,,,> 100

SMILES,GI50 (TK-10 renal) [µM],TGI (TK-10 renal) [µM],GI50 (CCRF-CEM leukemia) [µM],TGI (CCRF-CEM leukemia) [µM],GI50 (K-562 leukemia) [µM],TGI (K-562 leukemia) [µM],GI50 (SK-MEL-5 melanoma) [µM],TGI (SK-MEL-5 melanoma) [µM],GI50 (OVCAR-3 ovarian) [µM],TGI (OVCAR-3 ovarian) [µM],GI50 (A498 renal) [µM],TGI (A498 renal) [µM],GI50 (DMS 273 small cell lung) [µM],TGI (DMS 273 small cell lung) [µM],TGI (MDA-MB-435) [µM],GI50 (MDA-MB-435) [µM],GI50 (SR leukemia) [µM],TGI (SR leukemia) [µM],TGI (LXFL 529 NSCLC) [µM]
CC/C(=N/O)C(C)C(=O)CCC(=O)Nc1ccc(Cl)cc1 (centres undefined),,> 100,,> 100,,> 100,,> 100,,> 100,,> 100,,> 100,,,,,> 100
C#CCn1c2c(c3ccccc3c1=O)C(=O)c1ccccc1-2,,61.6,,> 100,,> 100,,22.1,,29.6,,82.9,,,> 100,,,> 100,
C=C(C)[C@@H]1CC[C@]2(COC(=O)c3ccccc3C(=O)O)CC[C@]3(C)[C@H](CC[C@@H]4[C@@]5(C)CC[C@H](OC(=O)c6ccccc6C(=O)O)C(C)(C)[C@@H]5CC[C@]43C)[C@@H]12,24.8,63.3,30.5,> 100,31.7,> 100,99.2,> 100,17.5,49.3,40.6,> 100,,,> 100,34.6,27.3,74.1,
NCCNc1nc2ccc(F)cc2c2c(=O)c3cc(F)ccc3sc12,2.07,3.57,2.11,4.54,2.14,5.41,1.68,3.25,1.63,3.15,1.64,6.9,,,3.29,1.77,1.98,4.91,
CN1CCN(c2ccc(NC(=O)c3cncnc3Nc3ccc4c(ccn4Cc4cccc(F)c4)c3)cc2)CC1,5.87,11.1,0.901,2.66,0.55,1.2,1.56,5.91,4.08,8.48,2.16,6.76,,,1.2,0.625,0.655,1.96,
COc1ccc(OC)c(-c2nc3sc(C)cn3c2/C=C2\C(=O)N(C)c3ccccc32)c1,48.3,> 100,5.8,83,5.98,71.1,14,27.3,23.6,62.3,29.3,70.6,,,18.6,4.04,1.89,18.5,
COC(=O)C1OC(SCCN)C(O)C(O)C1O (centres undefined),,> 100,,> 100,,> 100,,> 100,,> 100,,> 100,,,> 100,,,> 100,
COc1ccc(-c2cncn2-c2ccc(-c3nc4cc(OC)c(OC)c(OC)c4s3)cc2)cc1N,4.16,> 100,3.41,> 100,3.38,> 100,1.73,4.4,5.18,> 100,4.83,> 100,,,> 100,3.13,3.43,> 100,
COc1ncc(-c2ccc3ncnc(Nc4cccc(Cl)c4)c3c2)cc1NS(C)(=O)=O,0.183,1.4,2.81,43.2,4.51,85.3,1.37,3.22,1.17,7.7,0.605,2.94,,,17.3,2.77,3.91,> 100,
COc1ccccc1N1CCN(CC(O)Cn2c(=O)c3c(OC)nc(C)cc3c(=O)n2-c2ccccc2)CC1 (centres undefined),19.4,81.7,> 100,> 100,> 100,> 100,46.2,> 100,> 100,> 100,23.8,98.2,,,> 100,> 100,> 100,> 100,
Cn1c(=O)c2[nH]c(CCS)nc2n(C)c1=O,,> 100,,> 100,,> 100,,> 100,,> 100,,> 100,,,> 100,,,> 100,
COC(=O)C[C@@H]1CC=CC(=O)/C1=C(O)/C=C/c1ccccc1,0.916,5.69,0.264,1.19,0.364,,1.41,2.79,0.3,0.93,1.87,3.82,,,1.41,0.357,0.275,,
[N-]=[N+]=Nc1nnc(CCCCc2nnc(N=[N+]=[N-])o2)o1,,> 100,,> 100,,> 100,,> 100,,> 100,,> 100,,,,,,,> 100
O=C1Nc2cc(-c3ccc(O)cc3)ccc2/C1=C/c1ccc[nH]1,0.418,> 71.9,0.154,> 100,0.0335,> 75.9,0.412,> 100,0.348,3.99,1.53,5.05,,,> 100,0.0708,0.0309,> 33.7,
CCOC(=O)CC1C(CNC(=O)NC)OC(n2cnc3c(NC(=O)Nc4ccccc4)ncnc32)C1O[Si](C)(C)C(C)(C)C (centres undefined),12.4,40.5,6.69,88.6,3.59,32.9,4.34,> 100,4.59,17.2,3.35,17.1,,,> 100,6.21,2.23,7.07,
